Patent US20120012499A1, “TABLET FORMULATION” (Novo Nordisk A/S, priority 2006, published 2012)
≈ marks a conversion by molar mass, not a printed value.

Assay: solubility of drug substance in pH 5.0 buffer solution
Type: physicochemical
Conditions: aqueous buffer

## CCOc1cc(CC(=O)N[C@@H](CC(C)C)c2ccccc2N2CCCCC2)ccc1C(=O)O [repaglinide, (S)-2-Ethoxy-4-[2-[[3-methyl-1-[2-(1-piperidinyl)phenyl]butyl]amino]-2-oxoethyl]benzoic acid]
  solubility: 9 µg/mL (≈ 19.9 µM)
